# Laboratory results published in PubChem BioAssay (NCI).
#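 Each compound was tested at five concentrations against cells in 96-well plates for 48 hours. At the GI50, growth is halved. The concentration for full growth arrest is given as TGI.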
# How the values were obtained:
# Experiment in all cases: DTP human tumour cell line panel, 48 h
# SK-MEL-2 melanoma = test system: SK-MEL-2 melanoma
# PC-3 prostate = test system: PC-3 prostate
# RPMI-8226 leukemia = test system: RPMI-8226 leukemia
# SR leukemia = test system: SR leukemia
# IGROV1 ovarian = test system: IGROV1 ovarian
# HOP-92 NSCLC = test system: HOP-92 NSCLC
# UACC-257 melanoma = test system: UACC-257 melanoma
# HCC-2998 colon = test system: HCC-2998 colon
# UO-31 renal = test system: UO-31 renal
# OVCAR-8 ovarian = test system: OVCAR-8 ovarian
# MDA-MB-231 breast = test system: MDA-MB-231 breast
# CAKI-1 renal = test system: CAKI-1 renal
# MDA-MB-468 breast = test system: MDA-MB-468 breast
# LOX IMVI melanoma = test system: LOX IMVI melanoma
# A549 NSCLC = test system: A549 NSCLC
# OVCAR-3 ovarian = test system: OVCAR-3 ovarian
# TK-10 renal = test system: TK-10 renal
# M14 melanoma = test system: M14 melanoma
# SN12C renal = test system: SN12C renal
# COLO 205 colon = test system: COLO 205 colon
# U251 CNS = test system: U251 CNS
# NCI-H226 lung = test system: NCI-H226 lung
# SW-620 colon = test system: SW-620 colon
# HCT-116 colon = test system: HCT-116 colon
# SNB-19 CNS = test system: SNB-19 CNS
# T-47D breast = test system: T-47D breast
# SF-295 CNS = test system: SF-295 CNS
# OVCAR-5 ovarian = test system: OVCAR-5 ovarian
# MOLT-4 leukemia = test system: MOLT-4 leukemia
# BT-549 breast = test system: BT-549 breast
# RXF 393 renal = test system: RXF 393 renal
# A498 renal = test system: A498 renal
# OVCAR-4 ovarian = test system: OVCAR-4 ovarian
# HT29 colon = test system: HT29 colon
# MDA-MB-435 = test system: MDA-MB-435
# NCI-H460 lung = test system: NCI-H460 lung
# MALME-3M melanoma = test system: MALME-3M melanoma
# SK-MEL-28 melanoma = test system: SK-MEL-28 melanoma
# HOP-62 NSCLC = test system: HOP-62 NSCLC
# CCRF-CEM leukemia = test system: CCRF-CEM leukemia
# SK-OV-3 ovarian = test system: SK-OV-3 ovarian
# HL-60(TB) leukemia = test system: HL-60(TB) leukemia
# K-562 leukemia = test system: K-562 leukemia
# EKVX NSCLC = test system: EKVX NSCLC
# NCI/ADR-RES ovarian = test system: NCI/ADR-RES ovarian
# MCF7 breast = test system: MCF7 breast
# SF-539 CNS = test system: SF-539 CNS
# DU-145 prostate = test system: DU-145 prostate
# NCI-H23 lung = test system: NCI-H23 lung
# SK-MEL-5 melanoma = test system: SK-MEL-5 melanoma
# SF-268 CNS = test system: SF-268 CNS
# 786-0 renal = test system: 786-0 renal
# HS 578T breast = test system: HS 578T breast
# KM12 colon = test system: KM12 colon
# ACHN renal = test system: ACHN renal
# HCT-15 colon = test system: HCT-15 colon
# NCI-H522 lung = test system: NCI-H522 lung
# UACC-62 melanoma = test system: UACC-62 melanoma
compound,measurement,setting,value
C[C@H]1CN(C(=O)c2ccc3c(NNC(=O)c4ccncn4)nc4cc(F)c(F)cc4n23)CCN1,GI50,SK-MEL-2 melanoma,2.73 µM
same,TGI,SK-MEL-2 melanoma,20.1 µM
same,GI50,PC-3 prostate,1.6 µM
same,TGI,PC-3 prostate,30.6 µM
same,GI50,RPMI-8226 leukemia,2.71 µM
same,TGI,RPMI-8226 leukemia,> 100 µM
same,GI50,SR leukemia,0.444 µM
same,TGI,SR leukemia,11.3 µM
same,GI50,IGROV1 ovarian,3.29 µM
same,TGI,IGROV1 ovarian,> 100 µM
same,GI50,HOP-92 NSCLC,0.246 µM
same,TGI,HOP-92 NSCLC,5.56 µM
same,GI50,UACC-257 melanoma,3.34 µM
same,TGI,UACC-257 melanoma,20.3 µM
same,GI50,HCC-2998 colon,2.14 µM
same,TGI,HCC-2998 colon,62.5 µM
same,GI50,UO-31 renal,0.284 µM
same,TGI,UO-31 renal,5.08 µM
same,GI50,OVCAR-8 ovarian,1.05 µM
same,TGI,OVCAR-8 ovarian,14 µM
same,GI50,MDA-MB-231 breast,3.42 µM
same,TGI,MDA-MB-231 breast,49.9 µM
same,GI50,CAKI-1 renal,0.566 µM
same,TGI,CAKI-1 renal,27.2 µM
same,GI50,MDA-MB-468 breast,1.51 µM
same,TGI,MDA-MB-468 breast,4.54 µM
same,GI50,LOX IMVI melanoma,0.88 µM
same,TGI,LOX IMVI melanoma,4.44 µM
same,GI50,A549 NSCLC,0.773 µM
same,TGI,A549 NSCLC,15.6 µM
same,GI50,OVCAR-3 ovarian,3.32 µM
same,TGI,OVCAR-3 ovarian,81.1 µM
same,GI50,TK-10 renal,0.373 µM
same,TGI,TK-10 renal,16.8 µM
same,GI50,M14 melanoma,0.711 µM
same,TGI,M14 melanoma,4.5 µM
same,GI50,SN12C renal,2.87 µM
same,TGI,SN12C renal,> 100 µM
same,GI50,COLO 205 colon,2.32 µM
same,TGI,COLO 205 colon,15 µM
same,GI50,U251 CNS,0.892 µM
same,TGI,U251 CNS,> 100 µM
same,GI50,NCI-H226 lung,1.49 µM
same,TGI,NCI-H226 lung,13 µM
same,GI50,SW-620 colon,1.98 µM
same,TGI,SW-620 colon,> 100 µM
same,GI50,HCT-116 colon,0.568 µM
same,TGI,HCT-116 colon,22.2 µM
same,GI50,SNB-19 CNS,3.4 µM
same,TGI,SNB-19 CNS,> 100 µM
same,GI50,T-47D breast,3.43 µM
same,TGI,T-47D breast,> 100 µM
same,GI50,SF-295 CNS,0.418 µM
same,TGI,SF-295 CNS,19.1 µM
same,GI50,OVCAR-5 ovarian,2.58 µM
same,TGI,OVCAR-5 ovarian,44.4 µM
same,GI50,MOLT-4 leukemia,1.98 µM
same,TGI,MOLT-4 leukemia,17.2 µM
same,GI50,BT-549 breast,4.06 µM
same,TGI,BT-549 breast,85.8 µM
same,GI50,RXF 393 renal,2.12 µM
same,TGI,RXF 393 renal,12.2 µM
same,GI50,A498 renal,19.1 µM
same,TGI,A498 renal,34.3 µM
same,GI50,OVCAR-4 ovarian,2.12 µM
same,TGI,OVCAR-4 ovarian,40.1 µM
same,GI50,HT29 colon,0.495 µM
same,TGI,HT29 colon,16 µM
same,GI50,MDA-MB-435,4.83 µM
same,TGI,MDA-MB-435,> 100 µM
same,GI50,NCI-H460 lung,0.492 µM
same,TGI,NCI-H460 lung,12.7 µM
same,GI50,MALME-3M melanoma,2.57 µM
same,TGI,MALME-3M melanoma,9.98 µM
same,GI50,SK-MEL-28 melanoma,2.92 µM
same,TGI,SK-MEL-28 melanoma,> 100 µM
same,GI50,HOP-62 NSCLC,0.938 µM
same,TGI,HOP-62 NSCLC,> 100 µM
same,GI50,CCRF-CEM leukemia,1.25 µM
same,TGI,CCRF-CEM leukemia,8.74 µM
same,GI50,SK-OV-3 ovarian,1.2 µM
same,TGI,SK-OV-3 ovarian,17.2 µM
same,GI50,HL-60(TB) leukemia,1.3 µM
same,TGI,HL-60(TB) leukemia,6.27 µM
same,GI50,K-562 leukemia,1.97 µM
same,TGI,K-562 leukemia,32.6 µM
same,GI50,EKVX NSCLC,0.871 µM
same,TGI,EKVX NSCLC,9.24 µM
same,GI50,NCI/ADR-RES ovarian,1.24 µM
same,TGI,NCI/ADR-RES ovarian,6.73 µM
same,GI50,MCF7 breast,2.75 µM
same,TGI,MCF7 breast,55.8 µM
same,GI50,SF-539 CNS,2.61 µM
same,TGI,SF-539 CNS,14.5 µM
same,GI50,DU-145 prostate,1.99 µM
same,TGI,DU-145 prostate,> 100 µM
same,GI50,NCI-H23 lung,2 µM
same,TGI,NCI-H23 lung,> 100 µM
same,GI50,SK-MEL-5 melanoma,1.55 µM
same,TGI,SK-MEL-5 melanoma,11.1 µM
same,GI50,SF-268 CNS,2.17 µM
same,TGI,SF-268 CNS,> 100 µM
same,GI50,786-0 renal,0.879 µM
same,TGI,786-0 renal,11.4 µM
same,GI50,HS 578T breast,7.64 µM
same,TGI,HS 578T breast,> 100 µM
same,GI50,KM12 colon,2.29 µM
same,TGI,KM12 colon,54 µM
same,GI50,ACHN renal,0.452 µM
same,TGI,ACHN renal,12.2 µM
same,GI50,HCT-15 colon,0.18 µM
same,TGI,HCT-15 colon,20.1 µM
same,GI50,NCI-H522 lung,2.18 µM
same,TGI,NCI-H522 lung,20.3 µM
same,GI50,UACC-62 melanoma,1.53 µM
same,TGI,UACC-62 melanoma,4.56 µM
